Patent publication US20190382850A1, “METHOD FOR IDENTIFYING MITOCHONDRIAL DNA IN EXTRACELLULAR VESICLES AND TREATMENT OF MTDNA-RELATED DISORDERS AND CANCER” (Memorial Sloan-Kettering Cancer Center, priority 2017, published 2019)

Experiments:
Format in all cases: cell-based, human
HTR tumor-derived cells = assay: OXPHOS potential (Seahorse) in FACS sorted tumor-derived cancer cells ± HT; settings: fulvestrant 10 μM, FIG. 2b
Source text: (§1) (Panel a) Representative tumor growth kinetics (BLI) of GFP+/Luciferase+MCF7 xenografts (n=10) treated with weekly fulvestrant once mammary fat pad tumors were established (after 3 months) which led to a period (4 months) of disease stability on HT (HTS) followed by exponential growth on HT (HTR). Representative H&E images of tumors and primary cultures from unsorted as well as FACS purified cancer cells (GFP+/Epcam+) and murine CAFs (GFP−/Epcam). Scale bar 20 μm. (Panel b) OXPHOS potential in tumor-derived cancer cells (panel a) was measured±HT (fulvestrant, 10 μM) by Seahorse. […] (Panel d) Percentage of metastatic lesions isolated by FACS from tumor-bearing mice (n=8/group) expressing murine mtDNA as determined by ND1 qPCR (2 ng of total DNA). Oxygen consumption rates (OCR) in murine-mtDNApos and ctrl HTR cells determined by Seahorse. (Panel e) Murine mitochondrial RNA expression (12 genes: ND1, ND2, COX2, ATP8, ATP6, COX3, ND3, ND4L, ND4, ND5, ND6, CytB) as fold change (logioscale) determined by qRT-PCR in HTR and HTS cells (panel a). […]
(§2) Mitochondrial respiration and OXPHOS potential in cells was assessed using Seahorse technology (www.seahorsebio.com)(Qian, W. & Van Houten, B. Alterations in bioenergetics due to changes in mitochondrial DNA copy number. Methods 51, 452-457 (2010)). […]

HTS cells = assay: as above; settings: fulvestrant 10 μM, FIG. 2b
Source text: as §1, §2

[1] = system: luminal breast cancer cells and xenograft derived cells; assay: mtDNA level (qPCR copy number) in HT-induced dormant cells; settings: fulvestrant 10 μM for 2 months; several models of HT-induced dormancy; FIG. 5b
Method: (Panel b) mtDNA level (qPCR as fold change, naïve cells was used as reference) in luminal breast cancer cells and xenograft derived cells (multiple models)±HT (fulvestrant, 10 μM for 2 months). (Panel c) Dormant MCF7 cells (HTD) were isolated and treated with 3×10^9 mCAF-derived EVs (wt-mtDNA^hi or ρ0-mtDNA^lo) weekly ×4+HT (fulvestrant, 10 μM/weekly). After 40 days, mammosphere (MS) number and mitochondrial membrane potential (Δψ) by TMRE staining (red) in HTR/mito^hi EV and HTD/mito^lo EV educated cells was determined; scale bar 15 μm. […] (Panel f) Murine mitochondrial RNA expression (14 genes, as fold change -log10scale-) by qRT-PCR in HTR and HTS cells (panel e) (reference HTDorm cells; MCF7); the expression of nuclear encoded murine (non-mitochondrial RNA) transcripts was also determined (Cox4, β2M). […]
Generation of HTD cells was performed by treating ER+(GFP+) breast cancer cell lines (MCF7, ZR751, BT474) with HT (fulvestrant, 10 μM) for 2 months. […] Viable cell number was subsequently determined using trypan blue exclusion and cell counting using bright field microscopy HTD cells were then cultured in vitro or injected in vivo for further studies. […] Proliferation was determined by Cal cein AM technique (InVitrogen). […] After 40 days, mammosphere number (bright field microscopy) was determined after 40 days. […] Tumor growth was determined by BLI and after necropsy. […]

## C[C@]12CC[C@@H]3c4ccc(O)cc4C[C@@H](CCCCCCCCC[S+]([O-])CCCC(F)(F)C(F)(F)F)[C@H]3[C@@H]1CC[C@@H]2O (stereo partly drawn) [fulvestrant]
HTR tumor-derived cells
  OXPHOS capacity of HTR tumor-derived cells: unaffected
HTS cells
  OXPHOS potential of HTS cells: inhibited
[1]
  reduction of mtDNA level (copy number) vs control: 70-90%
